Assay results taken from EP0013144A1, “Substituted diphenylamine derivatives, compositions and herbicidal uses thereof, and processes for their preparation” (ICI AUSTRALIA LIMITED, priority 1978, dated 1980).

Columns and labels:
Type in all cases: in vivo
Maize [1] = experiment: Pre-emergence herbicidal test, fibre trays (Example 33); set-up: key: 0 = 0-20% damage, 5 = complete kill, vs untreated control; settings: 2.0 kg/ha, after 21 days
Description: (§1) The compounds were formulated for test by mixing an appropriate amount with 5 ml of an emulsion prepared by diluting 160 ml of a solution containing 21.S g per litre of "Span" 80 and 78.2 g per litre of "Tween" 20 in methylcyclohexanone to 500 ml with water. "Span" 80 is a Trade Mark for a surface-active agent comprising sorbitan monolaurate. "Tween" 20 is a Trade Mark for a surface-active agent comprising a condensate of sorbitan monolaurate with 20 molar proportions of ethylene oxide. Each 5 ml emulsion containing a test compound was'then diluted to 40 ml with water and sprayed on to young pot plants (post-emergence test) of the species named in Table 5 below. Damage to test plants was assessed after 14 days on a scale of 0 to 5 where 0 is 0 to 20% damage and 5 is complete kill. In a test for pre-emergence herbicidal activity, seeds of the test plants were sown in a shallow slit formed in the surface of soil in fibre trays. The surface was then levelled and sprayed, and fresh soil then spread thinly over the sprayed surface. Assessment of herbicidal damage was carried out after 21 days using the same scale of 0 to 5 as the post-emergence test. In both cases the degree of herbicidal damage was assessed by comparison with untreated control plants. A dash (-) means that no experiment was carried out.

Cotton [2] = experiment: Post-emergence herbicidal test, young pot plants (Example 33); settings: 2.0 kg/ha, after 14 days
Description: as §1

Chenopodium album = experiment: as above; settings: 2.0 kg/ha, after 14 days
Description: as §1

Ipomea purpurea [3] = experiment: as above; settings: 2.0 kg/ha, after 14 days
Description: as §1

Sugar beet [4] = experiment: as above; settings: 2.0 kg/ha, after 14 days
Description: as §1

Senecio vulgaris [5] = experiment: as above; settings: 2.0 kg/ha, after 14 days
Description: as §1

Polygonum aviculare = experiment: as above; settings: 2.0 kg/ha, after 14 days
Description: as §1

Soy bean [6] = experiment: as above; settings: 2.0 kg/ha, after 14 days
Description: as §1

Amaranthus retroflexus = experiment: as above; settings: 2.0 kg/ha, after 14 days
Description: as §1

Rape [7] = experiment: as above; settings: 2.0 kg/ha, after 14 days
Description: as §1

Rice [8] = experiment: Pre-emergence herbicidal test, fibre trays (Example 33); settings: 2.0 kg/ha, after 21 days
Description: as §1

Cotton [9] = experiment: as above; settings: 2.0 kg/ha, after 21 days
Description: as §1

Winter wheat [10] = experiment: as above; settings: 2.0 kg/ha, after 21 days
Description: as §1

Sugar beet [11] = experiment: as above; settings: 2.0 kg/ha, after 21 days
Description: as §1

Senecio vulgaris [12] = experiment: as above; settings: 2.0 kg/ha, after 21 days
Description: as §1

Soy bean [13] = experiment: as above; settings: 2.0 kg/ha, after 21 days
Description: as §1

Rape [14] = experiment: as above; settings: 2.0 kg/ha, after 21 days
Description: as §1

Winter wheat [15] = experiment: Post-emergence herbicidal test, young pot plants (Example 33); set-up: key: 0 = 0-20% damage, 5 = complete kill, vs untreated control; settings: 2.0 kg/ha, after 14 days
Description: as §1

Rice [16] = experiment: as above; settings: 2.0 kg/ha, after 14 days
Description: as §1

Maize [17] = experiment: as above; settings: 2.0 kg/ha, after 14 days
Description: as §1

Wheat [18] = experiment: Pre-emergence herbicidal activity (Example 31); set-up: key: 0-3 scale: 0 = 0-25% damage, 3 = 75-99% kill, 3+ = 100% kill; settings: 10 kg/ha, after three weeks
Description: (§2) Concentrated formulations of the compounds of the invention were prepared by: • a) in the case of oils and waxy solids, dissolving the compound in toluene containing 7% v/v "Teric" N13 ("Teric" is a Trade MarK and "Teric" N13, a product of ethoxylation of nonylphenol, is available from ICI Australia Limited) and 3% v/v "Kemmat" SC15B ("Kemmat" is a Trade Mark and "Kemmat" SC15B is a formulation of calcium dodecylbenzene sulfonate); or • b) in the case of crystalline solids, adding 5 parts by weight of the compound and 1 part by weight of . ''Dyapol" PT ("Dyapol" is a Trade Mark and "Dyapol" PT is an anionic suspending agent) to 94 parts by weight of an aqueous solution containing 0.25% v/v of "Teric" N8 (a product of ethoxylation of nonylphenol) and ball-milling the mixture to produce a stable suspension. The emulsifiable concentrates and suspensions were then diluted with water to give an aqueous composition of the required concentration suitable for use in the evaluation of the pre-emergence and post-emergence herbicidal activity of the compounds of the invention.
(§3) The pre-emergent herbicidal activity of the compounds of the invention formulated as described in Example 30 was assessed by the following procedure.
(§4) The seeds of the test species were sown in rows 2 cm deep in soil contained in seed boxes. The monocotyledonous plants and the dicotyledonous plants were sprayed with the required quantity of a composition of the invention. Two duplicate seed Doxes were prepared in the same manner but were not sprayed with a composition of the invention and were used for comparison purposes. All the boxes were placed in a glasshouse, lightly watered with an overhead spray to initiate germination and then sub-irrigated as required for optimum plant growth. After three weeks the boxes were removed from the glasshouse and the effect of the treatment was visually assessed. The results are presented in Table 3 where the damage to plants is rated on a scale of from 0 to 3 where 0 represents from 0 to 25% damage, 3 represents 75 to 99% kill and 3+ represents 100% kill.
(§5) A dash (-) means that no experiment was carried out.

Ryegrass [19] = experiment: Pre-emergence herbicidal activity (Example 31); set-up: key: 0-3 scale: 0 = 0-25% damage, 3 = 75-99% kill, 3+ = 100% kill; settings: 10 kg/ha, after three weeks
Description: as §2, §3, §4, §5

Mustard [20] = experiment: Post-emergence herbicidal activity (Example 32); settings: 1 kg/ha, 3 weeks after spraying
Description: as §2
(§6) The post-emergent herbicidal activity of the compounds of the invention formulated as described in Example 30 was assessed by the following procedure.
(§7) The seeds of the test species were sown in rows 2 cm deep in soil contained in seed boxes. The monocotyledonous plants and the dicotyledonous plants were sown in separate seed boxes in duplicate. The four seed boxes were placed in a glasshouse, lightly watered with an overhead spray to initiate germination and then sub-irrigated as required for optimum plant growth. After the plants had grown to a height of about 10 to 12.5 cm one box of each of the monocotyledonous plants and the dicotyledonous plants was removed from the glasshouse and sprayed with the required quantity of a composition of the invention. After spraying the boxes were returned to the glasshouse for further 3 weeks and the effects of the treatment was visually assessed by comparison with the untreated controls. The results are presented in Table 4 where the damage to plants is rated on a scale of from 0 to 3 where 0 represents 0 to 25% damage, 3 represents 75 to 99% kill and 3+ represents 100% kill. A dash (-) means that no experiment was carried out.

Japanese millet [21] = experiment: Post-emergence herbicidal activity (Example 32); settings: 3 weeks after spraying
Description: as §2, §6, §7

Wild Oats [22] = experiment: Post-emergence herbicidal activity (Example 32); settings: 10 kg/ha, 3 weeks after spraying
Description: as §2, §6, §7

Sunflower [23] = experiment: Post-emergence herbicidal activity (Example 32); settings: 3 weeks after spraying
Description: as §2, §6, §7

Ryegrass [24] = experiment: Post-emergence herbicidal activity (Example 32); settings: 3 weeks after spraying
Description: as §2, §6, §7

Ipomea purpurea [25] = experiment: Pre-emergence herbicidal test, fibre trays (Example 33); settings: 2.0 kg/ha, after 21 days
Description: as §1

Mustard [26] = experiment: Pre-emergence herbicidal activity (Example 31); settings: 10 kg/ha, after three weeks
Description: as §2, §3, §4, §5

Ipomea = experiment: Pre-emergence herbicidal activity (Example 31); settings: 10 kg/ha, after three weeks
Description: as §2, §3, §4, §5

Japanese millet [27] = experiment: Pre-emergence herbicidal activity (Example 31); settings: 10 kg/ha, after three weeks
Description: as §2, §3, §4, §5

Wild Oats [28] = experiment: Pre-emergence herbicidal activity (Example 31); settings: 10 kg/ha, after three weeks
Description: as §2, §3, §4, §5

Sunflower [29] = experiment: Pre-emergence herbicidal activity (Example 31); settings: 10 kg/ha, after three weeks
Description: as §2, §3, §4, §5

Wheat [30] = experiment: Post-emergence herbicidal activity (Example 32); set-up: key: 0-3 scale: 0 = 0-25% damage, 3 = 75-99% kill, 3+ = 100% kill; settings: 3 weeks after spraying
Description: as §2, §6, §7

COC(=O)C(C)Oc1ccc(Nc2ccc(Cl)cc2)cc1 (centres unmarked) [Compound 12, Methyl 2-[4-(4-chloroanilino)prienoxy]propionate]
1: damage to test plants, Sb (Sugar beet [4]) | damage to test plants, Sn (Senecio vulgaris [5]) | herbicidal damage, Ct (Cotton [9]) | herbicidal damage, Sy (Soy bean [13]) | herbicidal damage, Rp (Rape [14])
0 (0 is 0 to 20% damage): herbicidal damage, Mz (Maize [1]) | damage to test plants, Ct (Cotton [2]) | damage to test plants, Ca (Chenopodium album) | damage to test plants, Ip (Ipomea purpurea [3]) | damage to test plants, Pi (Polygonum aviculare) | damage to test plants, Sy (Soy bean [6]) | damage to test plants, Rp (Rape [7]) | herbicidal damage, Rc (Rice [8]) | herbicidal damage, Ww (Winter wheat [10]) | herbicidal damage, Sn (Senecio vulgaris [12]) | damage to test plants, Ww (Winter wheat [15]) | damage to test plants, Rc (Rice [16])
2: damage to test plants, Am (Amaranthus retroflexus) | herbicidal damage, Sb (Sugar beet [11]) | damage to test plants, Mz (Maize [17])

COC(=O)C(C)Oc1ccc(Nc2ccc([N+](=O)[O-])cc2[N+](=O)[O-])cc1 (centres unmarked) [Compound 15]
1: damage to test plants, Ca (Chenopodium album) | damage to plants, Ms (Mustard [20]) | damage to plants, Rg (Ryegrass [24]; 1 kg/ha) | herbicidal damage, Sy (Soy bean [13]) | damage to plants, Ot (Wild Oats [28])
0 (0 represents from 0 to 25% damage): damage to plants, Wh (Wheat [18]) | damage to plants, Ms (Mustard [26]) | damage to plants, Ip (Ipomea) | damage to plants, Sf (Sunflower [29])
4: damage to test plants, Mz (Maize [17])
3 (3 represents 75 to 99% kill): damage to plants, Rg (Ryegrass [19]) | damage to plants, Jm (Japanese millet [21]; 1 kg/ha) | damage to plants, Jm (Japanese millet [27])
0 (0 represents 0 to 25% damage): damage to plants, Sf (Sunflower [23]; 1 kg/ha) | damage to plants, Sf (Sunflower [23]; 5 kg/ha) | damage to plants, Sf (Sunflower [23]; 10 kg/ha) | damage to plants, Wh (Wheat [30]; 1 kg/ha)
2: herbicidal damage, Mz (Maize [1]) | damage to test plants, Ct (Cotton [2]) | damage to test plants, Sy (Soy bean [6]) | damage to test plants, Am (Amaranthus retroflexus) | damage to test plants, Rp (Rape [7]) | damage to plants, Ot (Wild Oats [22]) | damage to test plants, Ww (Winter wheat [15]) | damage to plants, Wh (Wheat [30]; 5 kg/ha) | damage to plants, Wh (Wheat [30]; 10 kg/ha) | damage to test plants, Rc (Rice [16])
0 (0 is 0 to 20% damage): damage to test plants, Ip (Ipomea purpurea [3]) | damage to test plants, Sb (Sugar beet [4]) | damage to test plants, Sn (Senecio vulgaris [5]) | damage to test plants, Pi (Polygonum aviculare) | herbicidal damage, Rc (Rice [8]) | herbicidal damage, Ct (Cotton [9]) | herbicidal damage, Ip (Ipomea purpurea [25]) | herbicidal damage, Ww (Winter wheat [10]) | herbicidal damage, Sb (Sugar beet [11]) | herbicidal damage, Sn (Senecio vulgaris [12]) | herbicidal damage, Rp (Rape [14])
3+ (3+ represents 100% kill): damage to plants, Jm (Japanese millet [21]; 5 kg/ha) | damage to plants, Jm (Japanese millet [21]; 10 kg/ha) | damage to plants, Rg (Ryegrass [24]; 5 kg/ha) | damage to plants, Rg (Ryegrass [24]; 10 kg/ha)
